From article PMC11765512 (International Journal of Molecular Sciences, 2025)

Columns and labels:
[1] = target: T1, AH109 (pAD-T+pBD-53) (UniProt P02340+P03070); test: Y2H growth inhibition (MIC) of control strain AH109 (pAD-T+pBD-53); assay type: cell-based, yeast; conditions: SD/-Leu/-Trp/-His/-Ade dropout medium, 48 h
T1 construct: expressed in transfected cells; host or cells: yeast reporter strain AH109 carrying pAD-T and pBD-53
Method: The Chemdiv screening compound library used for HTS assay in this research is a combination of synthetic compounds from Enamine (Kyiv, Ukraine) and Life Chemicals Inc. (Burlington, ON, Canada), which can be purchased from Shanghai Topscience Biotechnology Co., Ltd., China. The compounds were stocked at 10 mg/mL in DMSO and used for the screening assays as described. […] Next, 199 μL of the diluted culture and 1 μL of tested compounds (the final concentration was 50 μg/mL) or DMSO were added into each well. […] The final concentrations of the compounds ranged from 100 μg/mL to 0.78 μg/mL with 2-fold dilutions between concentrations.

[2] = test system: AH109 (pAD-S-RBD+pBD-ACE2) cells; test: β-gal activity, ONPG assay in Y2H strain; assay type: cell-based, yeast
Method: The ONPG assay was conducted following the protocol of the β-gal activity quantitative detection kit (GENMED S[…]. USA, Arlington, MA, USA). The principle is based on the chemical reaction that the colorless substrate ONPG can be hydrolyzed by β-gal to generate o-nitrophenol (ONP) with a bright-yellow appearance. Briefly, cells were pelleted in Eppendorf® tubes and resuspended in Z-buffer. Chloroform and 0.2% SDS were added to the cells in the tubes and mixed by briefly vortexing, followed by incubation at 28 °C for 5 min. Next, the ONPG solution was added for further incubation. The reaction was terminated after 10 min for p53-T and after 25 min for all other samples by the addition of chilled Na2CO3. Absorbance was recorded at 420 nm. Results were normalized against the cell density and incubation time using the following formula: U=OD420sample−OD420blank/OD600×t×V
Here, ‘t’ represents the incubation time duration, measured in min, while ‘V’ denotes the volume of the cell cultures utilized for the assay, expressed in mL. The experiments were repeated three times.

[3] = test system: SARS-CoV-2 pseudovirus entry into HEK-293T-hACE2 cells; test: microbe, parasite or virus in culture; assay type: cell-based
[4] = test system: Vero cells; test: CCK-8 cytotoxicity, Vero; assay type: cell-based, African green monkey; conditions: for Survival Rate (%) Vero: 50 μg/mL, 48 h, CCK-8
Method: (§1) African green monkey kidney cells (Vero), Human Hepatocellular Carcinoma Cells (Huh-7), and Human Embryonic Kidney 293T (HEK-293T) cells were maintained in our laboratory. Cells were cultured in Dulbecco’s Modified Eagle’s Medium (DMEM, Hyclone, Logan, UT, USA) containing 10% fetal bovine serum (FBS, Gibco, Waltham, MA, USA) at 37 °C under 5% CO2 in a humidified environment.
(§2) The cytotoxicity of compounds against Vero, Huh-7, and HEK-293T cells was detected using the Cell Counting Kit-8. Briefly, the target cells were cultured at a density of 8000 cells per well in a 96-well plate containing DMEM enriched with 10% FBS. The cells were allowed to attach overnight, and the medium was replaced with a fresh serum-free DMEM containing 50 µg/mL of compounds. The cell viability was measured at 48 h post-drug treatment by the addition of the CCK-8 reagent (Biosharp, Hefei, Anhui, China), followed by incubation for 4 h. Finally, the absorbance of the cell culture was measured at 450 nm using a microplate reader (PerkinElmer, Waltham, MA, USA). The background absorbance of the blank media was also measured and subtracted from the sample reading. This experiment was repeated 3 times for each group. The obtained results were normalized to that of the control sample, which represented a cell viability of 100%.

[5] = test system: HEK-293T cells; test: CCK-8 cytotoxicity, HEK-293T; assay type: cell-based, Human; conditions: for Survival Rate (%) HEK-293T: 50 μg/mL, 48 h, CCK-8
Method: as §1, §2

[6] = test system: Huh-7 cells; test: CCK-8 cytotoxicity, Huh-7; assay type: cell-based, Human; conditions: for Survival Rate (%) Huh-7: 50 μg/mL, 48 h, CCK-8
Method: as §1, §2

[7] = test system: SARS-CoV-2 S-mediated cell–cell fusion (HEK-293T/SARS-CoV-2-S/EGFP with Vero); assay type: cell-based
[8] = target: SARS-CoV-2 S-RBD (Severe acute respiratory syndrome coronavirus 2, UniProt P0DTC2); test: biochemical; assay type: binding
[9] = target: ACE2 (Homo sapiens, UniProt Q9BYF1); test: SPR binding to immobilised ACE2
Chain of ACE2 (Q9BYF1 18-805): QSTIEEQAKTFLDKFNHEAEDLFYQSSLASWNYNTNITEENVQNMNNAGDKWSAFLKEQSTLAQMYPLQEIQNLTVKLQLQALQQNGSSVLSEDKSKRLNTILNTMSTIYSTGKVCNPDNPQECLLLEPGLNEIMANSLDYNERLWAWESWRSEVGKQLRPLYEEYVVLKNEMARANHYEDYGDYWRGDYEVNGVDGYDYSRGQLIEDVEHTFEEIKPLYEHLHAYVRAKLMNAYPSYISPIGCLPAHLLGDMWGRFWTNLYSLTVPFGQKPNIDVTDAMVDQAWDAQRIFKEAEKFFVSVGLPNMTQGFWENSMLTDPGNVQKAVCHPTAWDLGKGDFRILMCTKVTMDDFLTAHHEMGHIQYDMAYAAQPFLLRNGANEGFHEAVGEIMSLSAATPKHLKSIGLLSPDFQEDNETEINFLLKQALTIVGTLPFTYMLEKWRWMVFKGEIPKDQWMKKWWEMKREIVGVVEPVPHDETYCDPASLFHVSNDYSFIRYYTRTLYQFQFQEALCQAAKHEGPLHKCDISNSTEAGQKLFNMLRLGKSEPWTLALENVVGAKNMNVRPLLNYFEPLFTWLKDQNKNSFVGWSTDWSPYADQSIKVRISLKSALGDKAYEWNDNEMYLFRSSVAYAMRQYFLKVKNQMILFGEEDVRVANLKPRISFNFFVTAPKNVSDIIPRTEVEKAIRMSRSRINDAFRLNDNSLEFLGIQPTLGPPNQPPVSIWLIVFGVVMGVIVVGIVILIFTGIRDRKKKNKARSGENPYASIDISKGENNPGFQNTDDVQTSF

[10] = target: ACE2-S-RBD interaction (Severe acute respiratory syndrome coronavirus 2, UniProt P0DTC2); assay type: binding, SARS-CoV-2
[11] = target: S-RBD+ACE2 complex (Severe acute respiratory syndrome coronavirus 2, UniProt P0DTC2); design: species or system SARS-CoV-2
[12] = Severe acute respiratory syndrome-related coronavirus, 18 h, read-out: Inhibition rate of pseudovirus entry

T1 sequence (P03070 87-708 limits assumed): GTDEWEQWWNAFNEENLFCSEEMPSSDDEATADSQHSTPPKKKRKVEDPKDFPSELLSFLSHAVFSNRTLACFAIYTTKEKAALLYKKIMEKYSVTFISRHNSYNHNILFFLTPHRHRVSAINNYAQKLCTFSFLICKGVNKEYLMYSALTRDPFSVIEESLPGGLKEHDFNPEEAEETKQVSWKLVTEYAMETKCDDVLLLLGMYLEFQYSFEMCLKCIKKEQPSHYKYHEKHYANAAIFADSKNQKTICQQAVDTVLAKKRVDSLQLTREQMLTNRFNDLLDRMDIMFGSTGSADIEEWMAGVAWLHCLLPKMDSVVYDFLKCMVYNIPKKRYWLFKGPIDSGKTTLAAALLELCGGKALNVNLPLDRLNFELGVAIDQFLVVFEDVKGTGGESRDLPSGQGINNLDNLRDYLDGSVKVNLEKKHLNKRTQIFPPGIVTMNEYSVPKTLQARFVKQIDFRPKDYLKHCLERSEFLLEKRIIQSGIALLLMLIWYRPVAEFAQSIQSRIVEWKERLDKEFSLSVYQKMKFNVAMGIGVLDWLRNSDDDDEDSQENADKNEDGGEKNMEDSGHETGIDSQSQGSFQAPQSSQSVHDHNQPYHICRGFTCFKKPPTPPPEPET
T1 sequence (P02340 72-390 limits assumed): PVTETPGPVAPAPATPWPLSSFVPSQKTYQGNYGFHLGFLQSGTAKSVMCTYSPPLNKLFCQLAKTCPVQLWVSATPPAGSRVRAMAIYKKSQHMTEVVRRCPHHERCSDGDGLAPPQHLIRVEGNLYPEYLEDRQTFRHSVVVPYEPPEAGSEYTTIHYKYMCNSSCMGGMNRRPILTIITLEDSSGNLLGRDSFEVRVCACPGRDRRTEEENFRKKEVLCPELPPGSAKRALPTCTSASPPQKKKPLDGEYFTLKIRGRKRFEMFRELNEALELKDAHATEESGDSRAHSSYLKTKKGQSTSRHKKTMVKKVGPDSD

SMILES: O=C(c1ccc(N2CCCCS2(=O)=O)cc1)N1CCN(C(=O)c2ccco2)CC1 [IMB-1C]
- MIC against AH109 (pAD-T+pBD-53) [1]: 3.125 μg/mL
- Concentration showing clear inhibition of β-gal activity [2]: 0.39 µg/mL
- Inhibition of pseudovirus entry (in words) [3]: concentration-dependent inhibition
- inhibition at 10 µg/mL [3, 12]: 42.5%
- inhibition at 20 µg/mL [3, 12]: 68.1%
- Survival Rate (%) Vero [4]: 105%
- Effect on cell proliferation of Vero ([4]; up to 50 µg/mL for 48 h): did not affect
- Survival Rate (%) HEK-293T [5]: 88%
- Effect on cell proliferation of HEK-293T ([5]; up to 50 µg/mL for 48 h): did not affect
- Survival Rate (%) Huh-7 [6]: 122%
- Effect on cell proliferation of Huh-7 ([6]; up to 50 µg/mL for 48 h): did not affect
- Syncytium formation [7]: somewhat blocked in a dose-dependent manner
- Kd [8]: 1.06 µM
- Kd [9]: 1.11 µM
- SPR signal of ACE2 binding to S-RBD [10]: the signal value decreased
- Decrease of β-fold content [11]: 9.46%
- Increase of α-helix content [11]: 6.85%
- Secondary Structure Content (%) Random [11]: 32.93%
- Secondary Structure Content (%) α-Helix [11]: 13.12%
- Secondary Structure Content (%) β-Fold [11]: 42.07%
- Secondary Structure Content (%) β-Turn [11]: 15.97%

SMILES: Cc1ccc(N(Sc2ccc(Cl)cc2)C2C=CS(=O)(=O)C2)cc1 (stereo not shown) [IMB-4A]
- MIC against AH109 (pAD-T+pBD-53) [1]: 12.5 μg/mL
- Concentration showing clear inhibition of β-gal activity [2]: 6.25 µg/mL
- Inhibition of pseudovirus entry (in words) [3]: could not be observed
- Survival Rate (%) Vero [4]: 71%
- Survival Rate (%) HEK-293T [5]: 18%
- Survival Rate (%) Huh-7 [6]: 25%

SMILES: CC(C)CCC[C@@H](C)[C@H]1CC[C@H]2[C@@H]3CC[C@H]4C[C@@H](O[C@@H]5O[C@H](COS(=O)(=O)O)[C@@H](O[C@H]6O[C@H](COS(=O)(=O)O)[C@@H](O[C@H]7O[C@H](COS(=O)(=O)O)[C@@H](O[C@H]8O[C@H](COS(=O)(=O)O)[C@@H](OS(=O)(=O)O)[C@H](OS(=O)(=O)O)[C@H]8OS(=O)(=O)O)[C@H](OS(=O)(=O)O)[C@H]7OS(=O)(=O)O)[C@H](OS(=O)(=O)O)[C@H]6OS(=O)(=O)O)[C@H](OS(=O)(=O)O)[C@H]5OS(=O)(=O)O)CC[C@]4(C)[C@H]3CC[C@]12C [Pixatimod, reference compound]
- MIC against AH109 (pAD-T+pBD-53) [1]: 6.25 μg/mL
